Reference: ChEMBL document CHEMBL5727648, “5-aromatic alkynyl substituted benzamide compound and preparation method, pharmaceutical composition, and use thereof” (2020)
pIC50: −log10 of the molar value.

Molecular target: Metabotropic glutamate receptor 5 (Homo sapiens, UniProt P41594)
Experiment: The Fluo 8-AM fluorescent dye is an […] derivative of Fluo 8 which can easily penetrate the cell membrane into the cell by culture. The fluorescent dye into the cell will be hydrolyzed by intracellular esterase, the resulting Fluo 8 cannot easily pass through the lipid bimolecular membrane as a polar molecule, and will retain in the cell, and combine with calcium (Ca2+) to produce fluoresces.Cells expressing GPCR receptor protein (mGluR5) were first calibrated with a calcium ion sensitive fluorescent probe and then stimulated with the compound. After stimulation, the activation of the receptor lead to the calcium ion mobilization, and the fluorescent probe captures the calcium ion to induce the fluorescence signal. The signal can be read by a fluorescent plate reader. The fluorescent plate reader contains a sampling head for compound addition, thus enabling the change of the fluorescence value of the compound be read in real time.
Assay type: cell-based

Sequence of Metabotropic glutamate receptor 5 (P41594 whole entry): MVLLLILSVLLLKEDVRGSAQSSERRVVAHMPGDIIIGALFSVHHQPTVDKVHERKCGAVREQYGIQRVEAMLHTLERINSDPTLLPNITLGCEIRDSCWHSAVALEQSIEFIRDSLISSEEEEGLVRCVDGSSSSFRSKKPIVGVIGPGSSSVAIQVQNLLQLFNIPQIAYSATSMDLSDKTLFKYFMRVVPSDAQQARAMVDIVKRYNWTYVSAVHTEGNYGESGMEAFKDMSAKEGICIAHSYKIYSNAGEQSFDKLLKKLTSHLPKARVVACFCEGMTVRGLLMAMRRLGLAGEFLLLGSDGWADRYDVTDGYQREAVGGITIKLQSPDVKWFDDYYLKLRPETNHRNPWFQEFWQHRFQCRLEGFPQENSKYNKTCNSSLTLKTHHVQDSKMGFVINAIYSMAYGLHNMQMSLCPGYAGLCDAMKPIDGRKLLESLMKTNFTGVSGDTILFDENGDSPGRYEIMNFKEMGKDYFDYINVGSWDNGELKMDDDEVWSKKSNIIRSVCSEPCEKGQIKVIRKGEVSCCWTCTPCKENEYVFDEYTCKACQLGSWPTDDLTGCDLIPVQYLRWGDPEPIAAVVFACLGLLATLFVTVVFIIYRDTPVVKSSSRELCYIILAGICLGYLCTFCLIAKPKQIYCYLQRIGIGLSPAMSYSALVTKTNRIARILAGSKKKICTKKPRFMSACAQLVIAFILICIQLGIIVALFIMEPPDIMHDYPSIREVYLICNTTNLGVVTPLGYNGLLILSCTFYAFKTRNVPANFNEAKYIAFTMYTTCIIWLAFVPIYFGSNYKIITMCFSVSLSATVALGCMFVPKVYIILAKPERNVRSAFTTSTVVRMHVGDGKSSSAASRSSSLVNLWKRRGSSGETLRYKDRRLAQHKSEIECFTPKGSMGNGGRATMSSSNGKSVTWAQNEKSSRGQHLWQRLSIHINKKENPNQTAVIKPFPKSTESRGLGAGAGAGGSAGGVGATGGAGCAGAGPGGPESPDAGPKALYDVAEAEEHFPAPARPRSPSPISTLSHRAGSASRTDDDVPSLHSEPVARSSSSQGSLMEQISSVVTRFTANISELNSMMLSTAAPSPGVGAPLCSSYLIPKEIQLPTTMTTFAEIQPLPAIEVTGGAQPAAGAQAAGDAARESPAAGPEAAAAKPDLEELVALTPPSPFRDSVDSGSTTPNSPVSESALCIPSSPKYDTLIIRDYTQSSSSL

Row | pIC50 | SMILES
1 | 7.85 | Cc1nc(C#Cc2cccc(C(=O)Nc3cccnc3)c2)cs1
2 | 7.84 | Cc1nc(C#Cc2cccc(C(=O)N3CCc4ccccc4C3)c2)cs1
